Results: article PMC8165744, “Identification of an Alternative Glycyrrhizin Metabolite Causing Liquorice-Induced Pseudohyperaldosteronism and the Development of ELISA System to Detect the Predictive Biomarker” (Frontiers in Pharmacology, 2021)

What was measured:
[1] = binding of compound 4 to albumin in pooled EHBR plasma (ultrafiltration); assay type: in vitro ADME, Eisai hyperbilirubinuria rats (EHBRs); details: female, Eisai hyperbilirubinuria rat (EHBR), rat, 200 mg/kg; pooled plasma of EHBRs 12 h after oral GA
Method: (§1) Binding of Compound 4 to Albumin
(§2) We measured the binding ratios of 4 to albumin in pooled plasma of female EHBRs using the same protocol used in our previous study ([Ishiuchi et al., 2019]).
(§3) The pooled plasma samples collected from EHBRs 12 h after oral treatment with GA were loaded into ultracentrifuge filters with a 1 × 10^4 molecular weight cut-off and concentrated by centrifugation. The concentrations of 4 in the pooled plasma and the filtrate were 77 µM and undetectable, respectively. Based on the detection limits (3.2 nM) in the LC-MS/MS analysis, the albumin-binding ratios of 4 in the plasma was calculated to be more than 99.9%.

albumin = molecular target: T1, albumin (Rattus norvegicus, UniProt P02770); test: as above; assay type: in vitro ADME, Eisai hyperbilirubinuria rats (EHBRs)
T1 construct: from tissue; host or cells: pooled plasma of EHBRs orally treated with GA
T1 sequence (P02770 25-608): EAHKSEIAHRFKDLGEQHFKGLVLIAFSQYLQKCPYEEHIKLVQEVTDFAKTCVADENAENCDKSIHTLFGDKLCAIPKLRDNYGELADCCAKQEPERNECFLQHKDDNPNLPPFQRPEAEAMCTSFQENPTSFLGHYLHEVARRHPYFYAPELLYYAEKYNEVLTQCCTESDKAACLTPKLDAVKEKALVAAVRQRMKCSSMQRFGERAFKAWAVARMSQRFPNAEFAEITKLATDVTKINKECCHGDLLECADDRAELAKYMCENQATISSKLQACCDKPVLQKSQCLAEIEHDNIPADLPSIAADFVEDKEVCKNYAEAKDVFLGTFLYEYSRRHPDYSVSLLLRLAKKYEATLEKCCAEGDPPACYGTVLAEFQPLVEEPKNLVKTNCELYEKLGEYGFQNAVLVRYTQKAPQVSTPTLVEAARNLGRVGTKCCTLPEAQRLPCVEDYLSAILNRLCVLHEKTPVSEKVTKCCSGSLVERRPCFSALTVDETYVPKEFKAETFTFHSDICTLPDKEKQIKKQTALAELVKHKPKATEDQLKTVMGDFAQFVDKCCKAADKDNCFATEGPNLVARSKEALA
Method: as §1, §2, §3

human OAT1 = molecular target: T2, human OAT1 (Homo sapiens, UniProt Q4U2R8); test: uptake into HEK293 cells transfected with OAT1; assay type: in vitro ADME; details: HEK293, EHBR plasma, 37°C, 15 min
T2 construct: expressed in transfected cells; host or cells: HEK293 cells, pCI-neo vector
T2 sequence (Q4U2R8 1-563): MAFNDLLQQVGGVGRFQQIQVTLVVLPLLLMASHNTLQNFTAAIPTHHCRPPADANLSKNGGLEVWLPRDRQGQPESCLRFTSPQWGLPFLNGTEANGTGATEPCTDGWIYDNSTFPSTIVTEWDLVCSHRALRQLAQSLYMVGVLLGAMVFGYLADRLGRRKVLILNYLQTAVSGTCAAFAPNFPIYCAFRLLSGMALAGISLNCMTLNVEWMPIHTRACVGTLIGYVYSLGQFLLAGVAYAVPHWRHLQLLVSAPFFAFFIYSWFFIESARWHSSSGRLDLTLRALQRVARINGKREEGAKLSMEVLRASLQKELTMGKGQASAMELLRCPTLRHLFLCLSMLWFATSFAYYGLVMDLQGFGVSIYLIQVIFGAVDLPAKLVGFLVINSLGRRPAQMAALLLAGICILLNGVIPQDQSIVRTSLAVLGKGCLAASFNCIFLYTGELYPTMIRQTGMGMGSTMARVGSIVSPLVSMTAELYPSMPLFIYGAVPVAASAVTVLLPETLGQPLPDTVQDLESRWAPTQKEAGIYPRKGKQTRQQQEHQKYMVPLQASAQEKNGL
Source text: Uptake of Compound 4 by Rat Kidney Slices and Cells Expressing OAT1 and 3
For the uptake study of 4 into rat kidney slices, we used the samples obtained in our previous study ([Ishiuchi et al., 2019]). For the uptake study of 4 into the cells transiently expressing OAT1 and OAT3, we used the same protocol as in our previous study ([Makino et al., 2012]). cDNAs encoding human OAT1 and OAT3 inserted into pGH19 were generously supplied by Prof. Mitsuru Sugawara (Hokkaido University, Sapporo, Japan), and then subcloned into a pCI-neo mammalian expression vector (Promega, Madison, WI, United States). We used the same pooled plasma of male EHBRs orally treated with GA for 12 h used in our previous study ([Ishiuchi et al., 2019]).
FIGURE 2 Inhibitory effects of compound 4 on type-2 11β-hydroxysteroid dehydrogenase (11β-HSD2) using rat kidney microsome (A), and the uptake of 4 into rat kidney slices (B) or into HEK293 cells transfected with organic anion transporter (OAT) 1 (C) or OAT3 (D). […] Then, the amount of [^3H] cortisol was measured. […] Concentrations of 4 in kidney slice homogenates were measured using liquid chromatography-tandem mass spectrometry (LC-MS/MS). **p < 0.01 vs 4°C group using Student’s t-test (C) Male EHBRs were orally treated with GA (200 mg/kg) and their plasma samples were collected […] after treatment. […] Then, concentrations of 4 in cells were measured using LC-MS/MS. […]

[2] = molecular target: T3, rat type-2 11β-hydroxysteroid dehydrogenase (11β-HSD2) (Rattus norvegicus, UniProt P50233); test: in vitro 11β-HSD2 activity using rat kidney microsomes; assay type: biochemical; details: rat kidney microsome fraction, 37°C, 30 min
T3 construct: from tissue; host or cells: rat kidney microsome fraction
T3 sequence (P50233 1-400): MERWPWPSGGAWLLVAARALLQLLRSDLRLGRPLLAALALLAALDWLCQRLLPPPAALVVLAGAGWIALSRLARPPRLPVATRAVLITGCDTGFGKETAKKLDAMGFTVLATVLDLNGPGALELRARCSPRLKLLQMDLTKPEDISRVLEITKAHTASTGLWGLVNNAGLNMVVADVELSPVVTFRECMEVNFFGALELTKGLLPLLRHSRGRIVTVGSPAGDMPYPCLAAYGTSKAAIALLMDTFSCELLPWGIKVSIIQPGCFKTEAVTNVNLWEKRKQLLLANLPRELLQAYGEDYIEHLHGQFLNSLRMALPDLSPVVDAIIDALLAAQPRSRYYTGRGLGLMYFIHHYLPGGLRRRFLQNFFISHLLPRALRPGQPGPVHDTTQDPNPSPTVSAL
Method: Determination of in vitro 11β-HSD2 Activity Using Rat Kidney Microsomes
Then, the amount of [^3H] cortisol was measured. […] Kidneys were collected from normal Sprague-Dawley (SD) rats and slices were incubated with plasma samples of female EHBRs at 37°C or 4°C for 2 h, and then homogenized. […] HEK293 cells transfected with OAT1 or OAT3 were incubated with 1:2 diluted plasma samples of male EHBRs at 37°C for 15 min. Then, concentrations of 4 in cells were measured using LC-MS/MS.

concentration at 12 h [1]: 77 µM
albumin-binding ratio in plasma (albumin; pooled EHBR plasma, 1 × 10^4 MW cut-off filter, calculated from detection limit 3.2 nM): more than 99.9%
concentration in filtrate (albumin; ultracentrifuge filtrate of pooled EHBR plasma): undetectable
uptake into cells expressing OAT1 vs mock cells (human OAT1): significantly higher
IC50 [2]: 380 nM
SMILES: CC1(C)[C@@H](OS(=O)(=O)O)CC[C@]2(C)[C@H]3C(=O)C=C4[C@@H]5C[C@@](C)(C(=O)O[C@@H]6O[C@H](C(=O)O)[C@@H](O)[C@H](O)[C@H]6O)CC[C@]5(C)CC[C@@]4(C)[C@]3(C)CC[C@@H]12 [Compound 4, 18β-glycyrrhetyl-3-O-sulfate-30-O-glucuronide]
